# In publication PMC11274883, “Anticancer Effect of Pt^[sequence], Pt^II5MESS, Pt^II56MESS and Their Platinum(IV)-Dihydroxy Derivatives against Triple-Negative Breast Cancer and Cisplatin-Resistant Colorectal Cancer” (Cancers, 2024):
# Key:
# Format in all cases: cell-based
# MDA−MB−231 cells [1] = test: Western blot protein expression; details: MDA−MB−231, IC50, 72 h; for β-actin/GAPDH normalized to control (1): representative blot Figure S24A; for β-tubulin/GAPDH normalized to control (1): representative blot Figure S24B; for α-tubulin/GAPDH normalized to control (1): representative blot Figure S24C; for p-AKT/AKT/GAPDH normalized to control (1): representative blot Figure S25A; for p-ERK/ERK/GAPDH normalized to control (1): representative blot Figure S25B; for p53/GAPDH normalized to control (1): representative blot Figure S25C; for p21/GAPDH normalized to control (1): representative blot Figure S25D; for Bax/GAPDH normalized to control (1): representative blot Figure S26A; for Bcl2/GAPDH normalized to control (1): representative blot Figure S26B; for Cytochrome C/GAPDH normalized to control (1): representative blot Figure S26C; for Procaspase 8/GAPDH normalized to control (1): representative blot Figure S26D; for Cleaved BID/GAPDH normalized to control (1): representative blot Figure S26E; for Procaspase 9/GAPDH normalized to control (1): representative blot Figure S26F; for Procaspase 3/GAPDH normalized to control (1): representative blot Figure S26G; for PARP-1/GAPDH normalized to control (1): representative blot Figure S26H; for Beclin1/GAPDH normalized to control (1): representative blot Figure S27A; for ATG5/GAPDH normalized to control (1): representative blot Figure S27B; for ATG16L1/GAPDH normalized to control (1): representative blot Figure S27C; for ATG9A/GAPDH normalized to control (1): representative blot Figure S27D; for ATG4B/GAPDH normalized to control (1): representative blot Figure S27E; for LC3B/GAPDH normalized to control (1): representative blot Figure S27F
# Method in brief: (§1)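 Cells were lysed in RIPA buffer with orthovanadate, and 20 µg protein was run on SDS-PAGE, transferred to PVDF and probed for proliferation, apoptosis, microtubule and autophagy markers. ECL band intensities were normalised to GAPDH and then to untreated control. Three independent experiments were run per marker.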
# HT29 cells [2] = test: Western blot protein expression; details: HT29, IC50, 72 h; for β-actin/GAPDH normalized to control (1): representative blot Figure S28A; for β-tubulin/GAPDH normalized to control (1): representative blot Figure S28B; for α-tubulin/GAPDH normalized to control (1): representative blot Figure S28C; for p-AKT/AKT/GAPDH normalized to control (1): representative blot Figure S29A; for p-ERK/ERK/GAPDH normalized to control (1): representative blot Figure S29B; for p53/GAPDH normalized to control (1): representative blot Figure S29C; for p21/GAPDH normalized to control (1): representative blot Figure S29D; for Bax/GAPDH normalized to control (1): representative blot Figure S30A; for Bcl2/GAPDH normalized to control (1): representative blot Figure S30B; for Cyt C/GAPDH normalized to control (1): representative blot Figure S30C; for Procaspase 8/GAPDH normalized to control (1): representative blot Figure S30D; for Cleaved BID/GAPDH normalized to control (1): representative blot Figure S30E; for Procaspase 9/GAPDH normalized to control (1): representative blot Figure S30F; for Cleaved caspase 3/GAPDH normalized to control (1) / Procaspase 3/GAPDH normalized to control (1): representative blot Figure S30G; for Cleaved PARP-1/GAPDH normalized to control (1) / PARP-1/GAPDH normalized to control (1): representative blot Figure S30H; for Beclin1/GAPDH normalized to control (1): representative blot Figure S31A; for ATG5/GAPDH normalized to control (1): representative blot Figure S31B; for ATG16L1/GAPDH normalized to control (1): representative blot Figure S31C; for ATG9A/GAPDH normalized to control (1): representative blot Figure S31D; for ATG4B/GAPDH normalized to control (1): representative blot Figure S31E; for LC3B/GAPDH normalized to control (1): representative blot Figure S31F
# Method in brief: as §1
# MDA−MB−231 cells [3] = test: TMRE mitochondrial membrane potential assay; details: complexes at IC50, FCCP 20 µM
# Method in brief: (§2)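 Cells treated with each complex at its IC50 concentration for 24, 48 or 72 h, then stained with 1 µM TMRE for 30 min and washed before fluorescence scanning. Three independent experiments in triplicate.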
# HT29 cells [4] = test: TMRE mitochondrial membrane potential assay; details: complexes at IC50, FCCP 20 µM
# Method in brief: as §2
smiles,measurement,setting,value
"Cc1c(C)c2cccnc2c2ncccc12.N[C@H]1CCCC[C@@H]1N.O=[N+]([O-])[O-].O=[N+]([O-])[O-].[OH][Pt+2][OH] [Pt^IV56MESS(OH)2, [Pt(5,6-dimethyl-1,10-phenanthroline)(1S,2S-diaminocyclohexane)(dihydroxy)](NO3)2]",β-actin/GAPDH normalized to control (1),MDA−MB−231 cells [1],0.6671
same,β-tubulin/GAPDH normalized to control (1),MDA−MB−231 cells [1],0.4289
same,α-tubulin/GAPDH normalized to control (1),MDA−MB−231 cells [1],1.359
same,p-AKT/AKT/GAPDH normalized to control (1),MDA−MB−231 cells [1],0.79
same,p-ERK/ERK/GAPDH normalized to control (1),MDA−MB−231 cells [1],0.2828
same,p53/GAPDH normalized to control (1),MDA−MB−231 cells [1],1.183
same,p21/GAPDH normalized to control (1),MDA−MB−231 cells [1],1.053
same,Bax/GAPDH normalized to control (1),MDA−MB−231 cells [1],2.6
same,Bcl2/GAPDH normalized to control (1),MDA−MB−231 cells [1],0.8651
same,Cytochrome C/GAPDH normalized to control (1),MDA−MB−231 cells [1],2.185
same,Procaspase 8/GAPDH normalized to control (1),MDA−MB−231 cells [1],0.568
same,Cleaved BID/GAPDH normalized to control (1),MDA−MB−231 cells [1],8.533
same,Procaspase 9/GAPDH normalized to control (1),MDA−MB−231 cells [1],0.4557
same,Procaspase 3/GAPDH normalized to control (1),MDA−MB−231 cells [1],0.9471
same,PARP-1/GAPDH normalized to control (1),MDA−MB−231 cells [1],0.6182
same,Beclin1/GAPDH normalized to control (1),MDA−MB−231 cells [1],0.9592
same,ATG5/GAPDH normalized to control (1),MDA−MB−231 cells [1],0.8924
same,ATG16L1/GAPDH normalized to control (1),MDA−MB−231 cells [1],1.456
same,ATG9A/GAPDH normalized to control (1),MDA−MB−231 cells [1],0.8822
same,ATG4B/GAPDH normalized to control (1),MDA−MB−231 cells [1],2.179
same,LC3B/GAPDH normalized to control (1),MDA−MB−231 cells [1],0.7501
same,β-actin/GAPDH normalized to control (1),HT29 cells [2],1.209
same,β-tubulin/GAPDH normalized to control (1),HT29 cells [2],0.7075
same,α-tubulin/GAPDH normalized to control (1),HT29 cells [2],0.5719
same,p-AKT/AKT/GAPDH normalized to control (1),HT29 cells [2],0.7209
same,p-ERK/ERK/GAPDH normalized to control (1),HT29 cells [2],1.28
same,p53/GAPDH normalized to control (1),HT29 cells [2],5.047
same,p21/GAPDH normalized to control (1),HT29 cells [2],2.808
same,Bax/GAPDH normalized to control (1),HT29 cells [2],3.498
same,Bcl2/GAPDH normalized to control (1),HT29 cells [2],1.034
same,Cyt C/GAPDH normalized to control (1),HT29 cells [2],7.663
same,Procaspase 8/GAPDH normalized to control (1),HT29 cells [2],0.4035
same,Cleaved BID/GAPDH normalized to control (1),HT29 cells [2],2.651
same,Procaspase 9/GAPDH normalized to control (1),HT29 cells [2],0.4964
same,Cleaved caspase 3/GAPDH normalized to control (1),HT29 cells [2],1.746
same,Procaspase 3/GAPDH normalized to control (1),HT29 cells [2],1.297
same,Cleaved PARP-1/GAPDH normalized to control (1),HT29 cells [2],2.724
same,PARP-1/GAPDH normalized to control (1),HT29 cells [2],0.7172
same,Beclin1/GAPDH normalized to control (1),HT29 cells [2],6.222
same,ATG5/GAPDH normalized to control (1),HT29 cells [2],0.3221
same,ATG16L1/GAPDH normalized to control (1),HT29 cells [2],4.523
same,ATG9A/GAPDH normalized to control (1),HT29 cells [2],0.9044
same,ATG4B/GAPDH normalized to control (1),HT29 cells [2],0.9223
same,LC3B/GAPDH normalized to control (1),HT29 cells [2],1.976
same,MtMp (mitochondrial membrane potential),"MDA−MB−231 cells [3]; MDA−MB−231, 24 h",190.39 RFU
same,MtMp (mitochondrial membrane potential),"MDA−MB−231 cells [3]; MDA−MB−231, 48 h",156.37 RFU
same,MtMp (mitochondrial membrane potential),"MDA−MB−231 cells [3]; MDA−MB−231, 72 h",92.94 RFU
same,MtMp (mitochondrial membrane potential),"HT29 cells [4]; HT29, 24 h",258.69 RFU
same,MtMp (mitochondrial membrane potential),"HT29 cells [4]; HT29, 48 h",172.39 RFU
same,MtMp (mitochondrial membrane potential),"HT29 cells [4]; HT29, 72 h",124.84 RFU
"N[C@H]1CCCC[C@@H]1N.O=[N+]([O-])[O-].O=[N+]([O-])[O-].[OH-].[OH-].[Pt+4].c1cnc2c(c1)ccc1cccnc12 [[Pt(1,10-phenanthroline)(1S,2S-diaminocyclohexane)(dihydroxy)](NO3)2]",β-actin/GAPDH normalized to control (1),MDA−MB−231 cells [1],0.835
same,β-tubulin/GAPDH normalized to control (1),MDA−MB−231 cells [1],0.6552
same,α-tubulin/GAPDH normalized to control (1),MDA−MB−231 cells [1],0.9279
same,p-AKT/AKT/GAPDH normalized to control (1),MDA−MB−231 cells [1],1.063
same,p-ERK/ERK/GAPDH normalized to control (1),MDA−MB−231 cells [1],0.1206
same,p53/GAPDH normalized to control (1),MDA−MB−231 cells [1],1.176
same,p21/GAPDH normalized to control (1),MDA−MB−231 cells [1],1.346
same,Bax/GAPDH normalized to control (1),MDA−MB−231 cells [1],1.398
same,Bcl2/GAPDH normalized to control (1),MDA−MB−231 cells [1],0.7843
same,Cytochrome C/GAPDH normalized to control (1),MDA−MB−231 cells [1],2.378
same,Procaspase 8/GAPDH normalized to control (1),MDA−MB−231 cells [1],0.2888
same,Cleaved BID/GAPDH normalized to control (1),MDA−MB−231 cells [1],1.33
same,Procaspase 9/GAPDH normalized to control (1),MDA−MB−231 cells [1],0.2675
same,Procaspase 3/GAPDH normalized to control (1),MDA−MB−231 cells [1],0.4093
same,PARP-1/GAPDH normalized to control (1),MDA−MB−231 cells [1],0.5717
same,Beclin1/GAPDH normalized to control (1),MDA−MB−231 cells [1],1.408
same,ATG5/GAPDH normalized to control (1),MDA−MB−231 cells [1],1.129
same,ATG16L1/GAPDH normalized to control (1),MDA−MB−231 cells [1],0.9987
same,ATG9A/GAPDH normalized to control (1),MDA−MB−231 cells [1],0.774
same,ATG4B/GAPDH normalized to control (1),MDA−MB−231 cells [1],1.581
same,LC3B/GAPDH normalized to control (1),MDA−MB−231 cells [1],0.6076
same,β-actin/GAPDH normalized to control (1),HT29 cells [2],0.8943
same,β-tubulin/GAPDH normalized to control (1),HT29 cells [2],0.8137
same,α-tubulin/GAPDH normalized to control (1),HT29 cells [2],0.4054
same,p-AKT/AKT/GAPDH normalized to control (1),HT29 cells [2],1.011
same,p-ERK/ERK/GAPDH normalized to control (1),HT29 cells [2],1.229
same,p53/GAPDH normalized to control (1),HT29 cells [2],4.543
same,p21/GAPDH normalized to control (1),HT29 cells [2],3.293
same,Bax/GAPDH normalized to control (1),HT29 cells [2],3.388
same,Bcl2/GAPDH normalized to control (1),HT29 cells [2],1.194
same,Cyt C/GAPDH normalized to control (1),HT29 cells [2],7.091
same,Procaspase 8/GAPDH normalized to control (1),HT29 cells [2],0.9474
same,Cleaved BID/GAPDH normalized to control (1),HT29 cells [2],2.711
same,Procaspase 9/GAPDH normalized to control (1),HT29 cells [2],0.5927
same,Cleaved caspase 3/GAPDH normalized to control (1),HT29 cells [2],1.017
same,Procaspase 3/GAPDH normalized to control (1),HT29 cells [2],1.141
same,Cleaved PARP-1/GAPDH normalized to control (1),HT29 cells [2],2.239
same,PARP-1/GAPDH normalized to control (1),HT29 cells [2],0.6475
same,Beclin1/GAPDH normalized to control (1),HT29 cells [2],8.006
same,ATG5/GAPDH normalized to control (1),HT29 cells [2],0.3102
same,ATG16L1/GAPDH normalized to control (1),HT29 cells [2],4.093
same,ATG9A/GAPDH normalized to control (1),HT29 cells [2],1.203
same,ATG4B/GAPDH normalized to control (1),HT29 cells [2],0.9049
same,LC3B/GAPDH normalized to control (1),HT29 cells [2],2.232
same,MtMp (mitochondrial membrane potential),"MDA−MB−231 cells [3]; MDA−MB−231, 24 h",297.56 RFU
same,MtMp (mitochondrial membrane potential),"MDA−MB−231 cells [3]; MDA−MB−231, 48 h",257.95 RFU
same,MtMp (mitochondrial membrane potential),"MDA−MB−231 cells [3]; MDA−MB−231, 72 h",179.38 RFU
same,MtMp (mitochondrial membrane potential),"HT29 cells [4]; HT29, 24 h",312.19 RFU
same,MtMp (mitochondrial membrane potential),"HT29 cells [4]; HT29, 48 h",261.95 RFU
same,MtMp (mitochondrial membrane potential),"HT29 cells [4]; HT29, 72 h",215.58 RFU
